Experiment: PPI after repeated low-dose ropinirole
Assay type: in vivo
Conditions: same low doses as quinpirole

SMILES: CCCN(CCC)CCc1cccc2c1CC(=O)N2 [ropinirole]
- effect on PPI over time: acts like quinpirole to attenuate PPI symptoms over time
